We go through 55 compounds from US20110301143A1, “HETEROCYCLIC DERIVATIVES AS INHIBITORS OF STEAROYL-COENZYME A DELTA-9 DESATURASE” (priority 2009, published 2011).

As usually defined, the IC50 is the concentration at which inhibition is half-maximal. Low values mean greater potency in that assay, high ones weaker potency in that assay.

The target of the test is T1, human SCD1 (hSCD-1) (Homo sapiens, UniProt O00767).
T1 construct: made in house; host or cells: baculovirus/Sf9 insect cells
T1 sequence (O00767 1-359): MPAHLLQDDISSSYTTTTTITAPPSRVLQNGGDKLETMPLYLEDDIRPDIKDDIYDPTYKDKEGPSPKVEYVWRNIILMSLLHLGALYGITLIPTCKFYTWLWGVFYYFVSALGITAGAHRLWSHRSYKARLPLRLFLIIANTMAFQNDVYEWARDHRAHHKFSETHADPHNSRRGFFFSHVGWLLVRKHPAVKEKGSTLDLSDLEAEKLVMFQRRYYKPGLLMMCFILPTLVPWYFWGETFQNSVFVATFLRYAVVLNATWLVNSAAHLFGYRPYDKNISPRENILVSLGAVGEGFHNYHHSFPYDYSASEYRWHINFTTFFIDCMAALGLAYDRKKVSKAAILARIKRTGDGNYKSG
In words: SCD enzyme activity assay, reconstituted human SCD1 (conversion of radiolabeled stearoyl-CoA to oleoyl-CoA). In kind it is biochemical. As to conditions: human SCD-1. Here is the method:
The potency of compounds of formula I against the stearoyl-CoA desaturase was determined by measuring the conversion of radiolabeled stearoyl-CoA to oleoyl-CoA using rat liver microsome or human SCD1 (hSCD-1) following previously published procedures with some modifications (Joshi, et al., J. Lipid Res., 18: 32-36 (1977); Talamo, et al., Anal. Biochem, 29: 300-304 (1969)). Liver microsome was prepared from male Wistar or Sprague Dawley rats on a high carbohydrate diet for 3 days (LabDiet # 5803, Purina). The livers were homogenized (1:10 w/v) in a buffer containing 250 mM sucrose, 1 mM EDTA, 5 mM DTT and 50 mM Tris-HCl (pH 7.5). After a 100,000×g centrifugation for 60 min, the liver microsome pellet was suspended in a buffer containing 100 mM sodium phosphate, 20% glycerol, 2 mM DTT, and stored at −78° C. Human SCD1 desaturase system was reconstituted using human SCD1 from a baculovirus/Sf9 expression system, cytochrome B5 and cytochrome B5 reductase. Typically, test compound in 2 μL DMSO was incubated for 15 min at room temperature with 180 μL of the SCD enzyme in a buffer containing 100 mM Tris-HCl (pH 7.5), ATP (5 mM), Coenzyme-A (0.1 mM), Triton X-100 (0.5 mM) and NADH (2 mM). The reaction was initiated by the addition of 20 μL of [^3H]-stearoyl-CoA (final concentration=2 μM, radioactivity concentration=1 μCi/mL). After 10 min, the reaction mixture (80 μL) was mixed with a calcium chloride/charcoal aqueous suspension (100 μl, charcoal (10% w/v) plus 25 μL CaCl2 (2N). After centrifugation to precipitate the radioactive fatty acid species, tritiated water released from 9,10-[^3H]-stearoyl-CoA by the SCD enzyme was quantified on a scintillation counter.

`O=C(O)Cn1nnc(-c2cc(N3CCN(C(=O)c4cccc(OC(F)(F)F)c4)CC3)no2)n1` registered a half-inhibitory concentration (IC50) of less than 20 nM. The figure for `O=C(O)Cn1nnc(-c2cnc(N3CCC(C(=O)c4ccccc4C(F)(F)F)CC3)s2)n1` is less than 20 nM; for `O=C(O)Cn1nnc(-c2cnc(N3CCN(c4cccc(OC(F)(F)F)c4)CC3)s2)n1` it is less than 20 nM; for `O=C(O)Cn1nnc(-c2cc(N3CCN(C(=O)c4cc(C(F)(F)F)ccc4Cl)CC3)no2)n1` it is 24 nM. In turn, `O=C(O)Cn1nnc(-c2cc(N3CCN(c4cccc(C(F)(F)F)c4)CC3)no2)n1` registered an IC50 of 83 nM. With `O=C(O)Cn1nnc(-c2cc(N3CCN(c4cc(F)ccc4Cl)CC3)no2)n1` the figure was 35 nM; with `O=C(O)Cn1nnc(-c2cnc(N3CCCN(c4ccccc4C(F)(F)F)CC3)s2)n1`, 30 nM. `O=C(O)Cn1nnc(-c2cnc(N3CCCN(c4cc(F)ccc4Cl)CC3)s2)n1` yielded a concentration for half-maximal inhibition (IC50) of 29 nM. `O=C(O)Cn1nnc(-c2cc(N3CCC(C(=O)c4ccccc4C(F)(F)F)CC3)no2)n1` registered an IC50 of less than 20 nM. With `O=C(O)Cn1nnc(-c2cnc(N3CC=C(c4ccccc4C(F)(F)F)CC3)s2)n1` the figure was less than 20 nM. With `CCc1ccc(F)cc1C(=O)C1CCN(c2cc(-c3nnn(CC(=O)O)n3)on2)CC1` the figure was less than 20 nM.

`O=C(O)Cn1nnc(-c2cnc(N3CCC(c4cccc(C(F)(F)F)c4)CC3)s2)n1` displayed an IC50 of less than 20 nM. With `O=C(O)Cn1nnc(-c2cnc(N3CCN(c4cc(C(F)(F)F)cc(C(F)(F)F)c4)CC3)nc2)n1` the figure was 44 nM. With `O=C(O)Cn1nnc(-c2cnc(N3CCN(c4ccccc4C(F)(F)F)CC3)s2)n1` the figure was less than 20 nM; with `O=C(O)Cn1nnc(-c2cnc(N3CCN(c4cc(F)ccc4Cl)CC3)s2)n1`, less than 20 nM. Take `O=C(O)Cn1nnc(-c2cc(N3CCC(C(=O)c4cc(F)ccc4Cl)CC3)no2)n1`: the IC50 was less than 20 nM.

The compound `O=C(O)Cn1nnc(-c2cc(N3CCC(C(=O)c4cc(F)ccc4C(F)(F)F)CC3)no2)n1` gave a 50% inhibitory concentration (IC50) of less than 20 nM. The figure for `O=C(O)Cn1nnc(-c2cc(N3CCC(C(=O)c4cc(C(F)(F)F)ccc4Cl)CC3)no2)n1` is 22 nM; for `O=C(O)Cn1nnc(-c2cnc(N3CCN(c4cc(C(F)(F)F)ccc4Cl)CC3)s2)n1` it is less than 20 nM. In the case of `O=C(O)Cn1nnc(-c2cnc(N3CCN(c4cc(Cl)ccc4F)CC3)s2)n1`, the IC50 is less than 20 nM. With `O=C(O)Cn1nnc(-c2cnc(N3C[C@@H]4C[C@H]3CN4c3cc(F)ccc3Cl)s2)n1` the figure was less than 20 nM; with `O=C(O)Cn1nnc(-c2cnc(N3C[C@@H]4C[C@H]3CN4c3cccc(Cl)c3)s2)n1`, less than 20 nM; with `O=C(O)Cn1nnc(-c2cc(N3CCC(C(=O)c4ccc(F)cc4Cl)CC3)no2)n1`, 50 nM. The figure for `CCC(C)c1ccccc1C(=O)C1CCN(c2cc(-c3nnn(CC(=O)O)n3)on2)CC1` (stereo not shown) is less than 20 nM; for `O=C(O)Cn1nnc(-c2cc(N3CCC(C(=O)c4cc(Cl)ccc4C(F)F)CC3)no2)n1` it is less than 20 nM; for `CC1(c2ccccc2C(=O)C2CCN(c3cc(-c4nnn(CC(=O)O)n4)on3)CC2)CC1` it is less than 20 nM. With `CC(C)(F)c1ccccc1C(=O)C1CCN(c2cc(-c3nnn(CC(=O)O)n3)on2)CC1` the figure was less than 20 nM. The compound `CC1(c2ccc(F)cc2C(=O)C2CCN(c3cc(-c4nnn(CC(=O)O)n4)on3)CC2)CC1` displayed an IC50 of less than 20 nM. Consider `Cc1ccc(C(F)(F)F)cc1C(=O)C1CCN(c2cc(-c3nnn(CC(=O)O)n3)on2)CC1`, for which the half-maximal inhibitory concentration (IC50) amounted to 48 nM.

Turning to `O=C(O)Cn1nnc(-c2cc(N3CCC(C(=O)c4cc(F)ccc4C(F)F)CC3)no2)n1`, the IC50 is less than 20 nM. As for `Cc1ccc(F)cc1C(=O)C1CCN(c2cc(-c3nnn(CC(=O)O)n3)on2)CC1`, it took 20 nM to reach half-maximal inhibition (IC50). With `O=C(O)Cn1nnc(-c2cc(N3CCC(C(=O)c4cc(C(F)(F)F)ccc4C(F)(F)F)CC3)no2)n1` the figure was less than 20 nM; with `O=C(O)Cn1nnc(-c2cc(N3CCC(C(=O)c4ccccc4OC(F)(F)F)CC3)no2)n1`, 66 nM; with `O=C(O)Cn1nnc(-c2cnc(N3CCC(C(=O)c4cc(Cl)ccc4Cl)CC3)nc2)n1`, 58 nM. Regarding `O=C(O)Cn1nnc(-c2cnc(N3CCC(C(=O)c4cc(F)ccc4Cl)CC3)nc2)n1`, the half-maximal inhibitory concentration (IC50) turned out to be 46 nM. With `O=C(O)Cn1nnc(-c2cnc(N3CCC(C(=O)c4cc(OC(F)(F)F)ccc4Cl)CC3)nc2)n1` the figure was less than 20 nM; with `O=C(O)Cn1nnc(-c2cnc(N3CCC(C(=O)c4cc(F)ccc4C(F)(F)F)CC3)nc2)n1`, 27 nM; with `O=C(O)Cn1nnc(-c2cc(N3CCC(C(=O)c4cc(F)ccc4CC4CC4)CC3)no2)n1`, less than 20 nM. With `O=C(O)Cn1nnc(-c2cc(N3CCC(C(=O)c4cc(F)ccc4C4CCC4)CC3)no2)n1` the figure was less than 20 nM; with `O=C(O)Cn1nnc(-c2cc(N3CCC(C(=O)c4cc(F)ccc4C4CC4)CC3)no2)n1`, less than 20 nM; with `O=C(O)Cn1nnc(-c2cc(N3CCC(C(=O)c4cc(Br)ccc4Br)CC3)no2)n1`, less than 20 nM. `COc1ccc(OC(F)(F)F)cc1C(=O)C1CCN(c2cc(-c3nnn(CC(=O)O)n3)on2)CC1`: it took 85 nM to reach half-maximal inhibition (IC50).

For the compound `Cc1ccc(Cl)cc1C(=O)C1CCN(c2cc(-c3nnn(CC(=O)O)n3)on2)CC1`, half-maximal inhibition (IC50) was put at 28 nM. For `CCCc1ccc(Cl)cc1C(=O)C1CCN(c2cc(-c3nnn(CC(=O)O)n3)on2)CC1`, the midpoint of inhibition, the IC50, lay at 23 nM. The figure for `CCc1ccc(Cl)cc1C(=O)C1CCN(c2cc(-c3nnn(CC(=O)O)n3)on2)CC1` is less than 20 nM; for `O=C(O)Cn1nnc(-c2cc(N3CCC(C(=O)c4cc(Cl)ccc4Br)CC3)no2)n1` it is less than 20 nM; for `COc1ccc(Cl)c(C(=O)C2CCN(c3cc(-c4nnn(CC(=O)O)n4)on3)CC2)c1` it is 95 nM.

The compound `Cc1ccc(Cl)c(C(=O)C2CCN(c3cc(-c4nnn(CC(=O)O)n4)on3)CC2)c1` came in with an IC50 of 79 nM. In turn, `O=C(O)Cn1nnc(-c2cc(N3CCC(C(=O)c4cc(F)ccc4Br)CC3)no2)n1` had an IC50 of less than 20 nM. Regarding `O=C(O)Cn1nnc(-c2cc(N3CCC(C(=O)c4ccccc4OC(F)F)CC3)no2)n1`, 40 nM corresponded to half-maximal inhibition (IC50). `O=C(O)Cn1nnc(-c2cc(N3CCC(C(=O)c4cc(Cl)ccc4C(F)(F)F)CC3)no2)n1` gave a concentration for half-maximal inhibition (IC50) of 32 nM. With `O=C(O)Cn1nnc(-c2cc(N3CCC(C(=O)c4ccccc4Br)CC3)no2)n1` the figure was 28 nM. The figure for `O=C(O)Cn1nnc(-c2cc(N3CCC(C(=O)c4cc(Cl)ccc4Cl)CC3)no2)n1` is 31 nM; for `CCC(C)c1ccc(F)cc1C(=O)C1CCN(c2cc(-c3nnn(CC(=O)O)n3)on2)CC1` (stereo not shown) [drawing 70] it is less than 20 nM; for `CCC(C)c1ccc(F)cc1C(=O)C1CCN(c2cc(-c3nnn(CC(=O)O)n3)on2)CC1` (stereo not shown) [drawing 71] it is less than 20 nM.
